Assay results as given in patent US7084158B2, “Substituted propargylamines” (Bayer Cropscience S.A., priority 2001, dated 2006).

What was measured:
Assay type in all cases: in vivo
Set-up in all cases: key: compounds were considered to be active when, at a concentration of 500 ppm or less, they had an activity on the harmful organisms of 50% or more
Heliothis virescens [1] = assay: Example B: tobacco budworm eggs on filter paper/insect diet, mortality; settings: 500 ppm or less; 24-hour-old eggs dipped, diet treated; after 6 days
Carpocapsa pomonella = assay: Example I: insect diet and L1 larvae sprayed, codling moth mortality; settings: 500 ppm or less, after 8 days
Procedure: Ten L1 larvae of the codling moth (Carpocapsa pomonella) were placed into a Petri dish filled with insect diet. Insect diet and the larvae used were then sprayed with an aqueous solution of the formulated compound to be examined. The Petri dish was then closed with a lid. After 8 days of storage at about 23° C., the effect of the compound on the larvae was determined (mortality). The compounds of the following examples were active: 60, 70, 1002, 1005.

Ctenocephalides felis = assay: Example M: cat fleas fed with treated cattle blood, mortality; settings: 500 ppm or less; adult fleas fed blood-preparation mixture; after 48 hours
Procedure: The formulated compound was mixed with defibrinated cattle blood. 10 adult cat fleas (Ctenocephalides felis) were fed with this blood-preparation mixture. After 48 hours at about 38° C., the effect of the compound on the fleas was determined (mortality). The compounds of the following examples were active: 70, 1002, 1004, 1005, 1036, 60, 197, 1057.

Plutella maculipennis [2] = assay: Example P: dipped cabbage leaf, diamondback moth larvae; settings: 500 ppm or less, after 3 days
Procedure: A cabbage leaf was dipped for about 5 seconds into an aqueous solution of the formulated compound to be examined. After drying, the cabbage leaf treated in this manner was transferred into a container and populated with 10 larvae of the diamondback moth (Plutella maculipennis). The container was then closed with a lid. After 3 days of storage at about 23° C., the effect of the compound on the larvae was determined. The following examples were active: 1036, 70, 60, 209.

Plutella maculipennis [3] = assay: Example W: cabbage plant, root-systemic activity on diamondback moth larvae; settings: 500 ppm or less; cabbage plant in treated water, populated after one week; after 3 days
Procedure: 2.4 ml of an aqueous solution of the formulated compound to be examined were pipetted into a bottle filled with 21.6 ml of water. A 14-day-old cabbage plant was transferred into the bottle. After one week, the plant was populated with 5 larvae of the diamondback moth (Plutella maculipennis). Plants and animals were then stored in a climatized chamber (23° C., 40–60% relative atmospheric humidity). After 3 days of storage, the root-systemic activity of the compound on the larvae was determined (mortality). The following examples were active: 1036, 70, 60.

Spodoptera exigua [4] = assay: Example X: dipped freeze-dried diet cube, sugar beet armyworm L2 larvae mortality; settings: 500 ppm or less, after 4 days
Procedure: Insect diet (as freeze-dried cube) was dipped into an aqueous solution of the formulated compound to be examined and then placed into a Petri dish. 10 L2 larvae of the sugar beet armyworm (Spodoptera exigua) were then added. The Petri dish was then closed with a lid. After 4 days of storage at about 23° C., the mortality among the larvae was determined. The following examples were active: 1036, 60.

Spodoptera exigua [5] = assay: Example Y: cotton plants sprayed, cut leaves, sugar beet armyworm mortality; settings: 500 ppm or less, leaves cut after drying, L2 larvae, after 4 days
Procedure: Cotton plants were sprayed with an aqueous solution of the formulated compound to be examined. After drying, leaves were cut off, placed into a Petri dish and populated with 5 L2 larvae of the sugar beet armyworm (Spodoptera exigua). After 4 days of storage at about 23° C., the mortality among the larvae was determined. The following examples were active: 1036, 70, 60, 1047, 197.

[6] = tested on: Diabrotica undecimpunctata; assay: Example AC: treated soil, southern corn rootworm eggs mortality; settings: 500 ppm or less, eggs added after 0d, 21d and 42d, after 2 weeks
Procedure: An aqueous solution of the formulated compound to be examined was mixed with soil. After 0d, 21d and 42d, eggs of the southern corn rootworm (Diabrotica undecimpunctata) were placed together with 2 pre-swollen maize corns into a dish, covered with the treated soil and moisted with 10 ml of water. Soil and eggs were placed in a greenhouse (23° C., 60% relative atmosphere humidity). After 2 weeks of storage, the effect of the compound on the eggs and any larvae hatched therefrom was determined (mortality). The following examples were active: 70, 60, 197, 204.

[7] = tested on: Trialeurodes vaporariorum; assay: Example AD: bush beans sprayed, white fly larvicidal action; settings: 500 ppm or less; bush beans sprayed after hatching; after 11 days
Procedure: For oviposition, bush beans (Phaseolus vulgaris) were populated for 48 hours with adults of the white fly (Trialeurodes vaporariorum). After the larvae had hatched, the plants were sprayed to run-off point with an aqueous solution of the formulated compound to be examined. After 11 days, the larvicidal action was determined. The following examples were active: 1036, 70, 60, 1040, 197.

Heliothis virescens [8] = assay: Example AH: sprayed cotton leaves, antifeeding activity on tobacco budworm larvae; settings: 500 ppm or less, L2 larvae, after 2, 3 and 4 days
Procedure: Cotton leaves were placed into a Petri dish, sprayed with an aqueous solution of the formulated compound to be examined and, after drying, populated with 5 L2 larvae of the American tobacco budworm (Heliothis virescens). After 2, 3 and 4 days of storage at about 25° C., the antifeeding activity of the compound on the larvae was determined. The following examples were active: 1036, 70, 60.

CC1CCN(CC#Cc2cc(C(F)(F)F)cc(C(F)(F)F)n2)CC1 [Example 60]
active: effect on the eggs and hatched larvae (mortality) (Heliothis virescens [1]) | effect on the larvae (mortality) (Carpocapsa pomonella) | effect on the fleas (mortality) (Ctenocephalides felis) | effect on the larvae (Plutella maculipennis [2]) | root-systemic activity on the larvae (mortality) (Plutella maculipennis [3]) | mortality among the larvae (Spodoptera exigua [4]) | mortality among the larvae (Spodoptera exigua [5]) | effect on the eggs and hatched larvae (mortality) [6] | larvicidal action [7] | antifeeding activity on the larvae (Heliothis virescens [8])
